Experiments:
Format in all cases: in vivo
Alternaria solani = assay: Test G: tomato early blight, preventive spray on tomato seedlings; details: tomato seedlings sprayed to run-off, inoculated next day, rated after 48 h + 5 days; for Percentage Disease Control Test G: 200 ppm
Excerpt: General protocol for preparing test suspensions for Tests A-G: the test compounds were first dissolved in acetone in an amount equal to 11% of the final volume and then suspended at the desired concentration (in ppm) in acetone and purified water (50/50 mix by volume) containing 250 ppm of the surfactant Trem® 014 (polyhydric alcohol esters). The resulting test suspensions were then used in Tests A-G. Spraying a 200 ppm test suspension to the point of run-off on the test plants was the equivalent of a rate of 800 g/ha. The test suspension was sprayed to the point of run-off on tomato seedlings. The following day the seedlings were inoculated with a spore suspension of Alternaria solani (the causal agent of tomato early blight) and incubated in a saturated atmosphere at 27° C. for 48 h, and then moved to a growth chamber at 24° C. for 5 days, after which time disease ratings were visually made. Results for Tests A-G are given in Table A. In the Table, a rating of 100 indicates 100% disease control and a rating of 0 indicates no disease control (relative to the controls). A dash (-) indicates no test results. All results are for 200 ppm except where followed by an “*”, which indicates 40 ppm.

Septoria tritici = assay: Test E: wheat leaf blotch, preventive spray on wheat seedlings; details: 200 ppm, wheat seedlings sprayed to run-off, inoculated next day, rated after 48 h + 19 days
Excerpt: General protocol for preparing test suspensions for Tests A-G: the test compounds were first dissolved in acetone in an amount equal to 11% of the final volume and then suspended at the desired concentration (in ppm) in acetone and purified water (50/50 mix by volume) containing 250 ppm of the surfactant Trem® 014 (polyhydric alcohol esters). The resulting test suspensions were then used in Tests A-G. Spraying a 200 ppm test suspension to the point of run-off on the test plants was the equivalent of a rate of 800 g/ha. The test suspension was sprayed to the point of run-off on wheat seedlings. The following day the seedlings were inoculated with a spore suspension of Septoria tritici (the causal agent of wheat leaf blotch) and incubated in a saturated atmosphere at 24° C. for 48 h, and then moved to a growth chamber at 20° C. for 19 days, after which time disease ratings were visually made. Results for Tests A-G are given in Table A. In the Table, a rating of 100 indicates 100% disease control and a rating of 0 indicates no disease control (relative to the controls). A dash (-) indicates no test results. All results are for 200 ppm except where followed by an “*”, which indicates 40 ppm.

Septoria nodorum = assay: Test D: wheat glume blotch, preventive spray on wheat seedlings; details: wheat seedlings sprayed to run-off, inoculated next day, rated after 48 h + 7 days; for Percentage Disease Control Test D: 200 ppm
Excerpt: General protocol for preparing test suspensions for Tests A-G: the test compounds were first dissolved in acetone in an amount equal to 11% of the final volume and then suspended at the desired concentration (in ppm) in acetone and purified water (50/50 mix by volume) containing 250 ppm of the surfactant Trem® 014 (polyhydric alcohol esters). The resulting test suspensions were then used in Tests A-G. Spraying a 200 ppm test suspension to the point of run-off on the test plants was the equivalent of a rate of 800 g/ha. The test suspension was sprayed to the point of run-off on wheat seedlings. The following day the seedlings were inoculated with a spore suspension of Septoria nodorum (the causal agent of wheat glume blotch) and incubated in a saturated atmosphere at 20° C. for 48 h, and then moved to a growth chamber at 20° C. for 7 days, after which time disease ratings were visually made. Results for Tests A-G are given in Table A. In the Table, a rating of 100 indicates 100% disease control and a rating of 0 indicates no disease control (relative to the controls). A dash (-) indicates no test results. All results are for 200 ppm except where followed by an “*”, which indicates 40 ppm.

[1] = test system: Erysiphe graminis f. sp. tritici; assay: Test A: wheat powdery mildew, preventive spray on wheat seedlings; details: wheat seedlings sprayed to run-off, inoculated next day, rated after 8 days, 100 = 100% disease control, 0 = no control; for Percentage Disease Control Test A: 200 ppm
Excerpt: General protocol for preparing test suspensions for Tests A-G: the test compounds were first dissolved in acetone in an amount equal to 11% of the final volume and then suspended at the desired concentration (in ppm) in acetone and purified water (50/50 mix by volume) containing 250 ppm of the surfactant Trem® 014 (polyhydric alcohol esters). The resulting test suspensions were then used in Tests A-G. Spraying a 200 ppm test suspension to the point of run-off on the test plants was the equivalent of a rate of 800 g/ha. The test suspension was sprayed to the point of run-off on wheat seedlings. The following day the seedlings were inoculated with a spore dust of Erysiphe graminis f. sp. tritici, (the causal agent of wheat powdery mildew) and incubated in a growth chamber at 20° C. for 8 days, after which time disease ratings were visually made. Results for Tests A-G are given in Table A. In the Table, a rating of 100 indicates 100% disease control and a rating of 0 indicates no disease control (relative to the controls). A dash (-) indicates no test results. All results are for 200 ppm except where followed by an “*”, which indicates 40 ppm.

[2] = test system: Puccinia recondita f sp. tritici; assay: Test B: wheat leaf rust, preventive spray on wheat seedlings; details: wheat seedlings sprayed to run-off, inoculated next day, rated after 24 h + 7 days; for Percentage Disease Control Test B: 200 ppm
Excerpt: General protocol for preparing test suspensions for Tests A-G: the test compounds were first dissolved in acetone in an amount equal to 11% of the final volume and then suspended at the desired concentration (in ppm) in acetone and purified water (50/50 mix by volume) containing 250 ppm of the surfactant Trem® 014 (polyhydric alcohol esters). The resulting test suspensions were then used in Tests A-G. Spraying a 200 ppm test suspension to the point of run-off on the test plants was the equivalent of a rate of 800 g/ha. The test suspension was sprayed to the point of run-off on wheat seedlings. The following day the seedlings were inoculated with a spore suspension of Puccinia recondita f sp. tritici (the causal agent of wheat leaf rust) and incubated in a saturated atmosphere at 20° C. for 24 h, and then moved to a growth chamber at 20° C. for 7 days, after which time disease ratings were visually made. Results for Tests A-G are given in Table A. In the Table, a rating of 100 indicates 100% disease control and a rating of 0 indicates no disease control (relative to the controls). A dash (-) indicates no test results. All results are for 200 ppm except where followed by an “*”, which indicates 40 ppm.

Botrytis cinerea = assay: Test F: tomato botrytis, preventive spray on tomato seedlings; details: tomato seedlings sprayed to run-off, inoculated next day, rated after 48 h + 3 days; for Percentage Disease Control Test F: 200 ppm
Excerpt: General protocol for preparing test suspensions for Tests A-G: the test compounds were first dissolved in acetone in an amount equal to 11% of the final volume and then suspended at the desired concentration (in ppm) in acetone and purified water (50/50 mix by volume) containing 250 ppm of the surfactant Trem® 014 (polyhydric alcohol esters). The resulting test suspensions were then used in Tests A-G. Spraying a 200 ppm test suspension to the point of run-off on the test plants was the equivalent of a rate of 800 g/ha. The test suspension was sprayed to the point of run-off on tomato seedlings. The following day the seedlings were inoculated with a spore suspension of Botrytis cinerea (the causal agent of tomato botrytis) and incubated in saturated atmosphere at 20° C. for 48 h, and then moved to a growth chamber at 27° C. for 3 additional days, after which time disease ratings were visually made. Results for Tests A-G are given in Table A. In the Table, a rating of 100 indicates 100% disease control and a rating of 0 indicates no disease control (relative to the controls). A dash (-) indicates no test results. All results are for 200 ppm except where followed by an “*”, which indicates 40 ppm.

[3] = test system: Puccinia recondita f. sp. tritici; assay: Test C: wheat leaf rust, spray the day after inoculation of wheat seedlings; details: 200 ppm; wheat seedlings inoculated, sprayed the following day, rated after 5 days;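 also: Curative spray on infected wheat seedlings with visual rating 5 days later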
Excerpt: General protocol for preparing test suspensions for Tests A-G: the test compounds were first dissolved in acetone in an amount equal to 11% of the final volume and then suspended at the desired concentration (in ppm) in acetone and purified water (50/50 mix by volume) containing 250 ppm of the surfactant Trem® 014 (polyhydric alcohol esters). The resulting test suspensions were then used in Tests A-G. Spraying a 200 ppm test suspension to the point of run-off on the test plants was the equivalent of a rate of 800 g/ha. Wheat seedlings were inoculated with a spore suspension of Puccinia recondita f. sp. tritici (the causal agent of wheat leaf rust) and incubated in a saturated atmosphere at 20° C. for 24 h. The following day, the test suspension was sprayed to the point of run-off on the wheat seedlings and then moved to a growth chamber at 20° C. for 5 days, after which time disease ratings were visually made. Results for Tests A-G are given in Table A. In the Table, a rating of 100 indicates 100% disease control and a rating of 0 indicates no disease control (relative to the controls). A dash (-) indicates no test results. All results are for 200 ppm except where followed by an “*”, which indicates 40 ppm.

Row | Compound | pest or weed control at 200 ppm (Alternaria solani; Alternaria solani, topical, 168 h, read-out: Percentage Disease Control Test G) [%] | pest or weed control at 200 ppm (Septoria tritici; Zymoseptoria tritici, 456 h, read-out: Percentage Disease Control Test E) [%] | pest or weed control at 200 ppm (Septoria nodorum; Parastagonospora nodorum, 216 h, read-out: Percentage Disease Control Test D) [%] | pest or weed control at 200 ppm ([1]; Blumeria graminis, 192 h, read-out: Percentage Disease Control Test A) [%] | pest or weed control at 200 ppm ([2]; Puccinia recondita, 192 h, read-out: Percentage Disease Control Test B) [%] | pest or weed control at 200 ppm (Botrytis cinerea; Botrytis cinerea, topical, 120 h, read-out: Percentage Disease Control Test F) [%] | Percentage Disease Control Test G (Alternaria solani) [%] | Percentage Disease Control Test E (Septoria tritici) [%] | Percentage Disease Control Test D (Septoria nodorum) [%] | Percentage Disease Control Test A [1] [%] | Percentage Disease Control Test B [2] [%] | Percentage Disease Control Test C [3] [%] | Percentage Disease Control Test F (Botrytis cinerea) [%]
1 | COC(=O)NCc1cc(-c2ccn(-c3ccc4c(c3)CCCO4)n2)ccc1Cl [Compound 1, methyl N-[[2-chloro-5-[1-(3,4-dihydro-2H-1-benzopyran-6-yl)-1H-pyrazol-3-yl]phenyl]methyl]carbamate] | 100 | 92 | 100 | 100 | 100 | 0 |  |  |  |  |  |  | 
2 | COC(=O)NCc1cc(-n2ccc(-c3ccc4c(c3)OCCO4)n2)ccc1F [Compound 10] |  |  |  |  |  |  | 84 | 98 | 100 | 100 | 100 | 100 | 94
3 | COC(=O)NCc1cc(-c2ccn(-c3ccc4c(c3)N(C)C(=O)CO4)n2)ccc1F [Compound 13] |  |  |  |  |  |  | 54 | 24 | 97 | 90 | 100 | 28 | 7
4 | COC(=O)NCc1cc(-n2ccc(-c3ccc4c(c3)NC(=O)CO4)n2)ccc1F [Compound 14] |  |  |  |  |  |  | 0 | 44 | 0 | 0 | 54 | 0 | 0
5 | COC(=O)NCc1cc(-n2ccc(-c3ccc4c(c3)NCCO4)n2)ccc1F [Compound 15] |  |  |  |  |  |  | 12 | 99 | 100 | 0 | 100 | 38 | 80
6 | COC(=O)NCc1cc(-c2ccn(-c3ccc4c(c3)CCCO4)n2)ccc1Br [Compound 16] |  |  |  |  |  |  | 85 | 100 | 100 | 100 | 100 | 100 | 99
7 | COC(=O)NCc1cc(-c2ccn(-c3ccc4c(c3)OCCO4)n2)ccc1Br [Compound 17] |  |  |  |  |  |  | 93 | 99 | 100 | 100 | 100 | 100 | 87
8 | COC(=O)NCc1cc(-n2ccc(-c3ccc4c(c3)C(=O)CCO4)n2)ccc1F [Compound 18] |  |  |  |  |  |  | 50 | 97 | 99 | 90 | 100 | 74 | 79
9 | COC(=O)NCc1cc(-c2ccn(-c3ccc4c(c3)OCCO4)n2)ccc1C [Compound 19] |  |  |  |  |  |  | 73 | 100 | 100 | 100 | 100 | 100 | 99
